Results taken from paper PMC6208970, “Linking cytochrome P450 enzymes from Mycobacterium tuberculosis to their cognate ferredoxin partners” (Applied Microbiology and Biotechnology, 2018).

Assays:
CYP124A1 = target: T1, CYP124A1 (Mycobacterium tuberculosis, UniProt P9WPP3); assay: reconstituted turnover, GC-MS detection of 27-hydroxycholesterol; assay type: biochemical; conditions: 0.5 μM CYP, 50 μM cholesterol in methyl-β-cyclodextrin; FdrA or FprA with FdxD or FdxE; pH 7.4; 37 °C
T1 construct: gene cyp124
T1 sequence (P9WPP3 whole entry): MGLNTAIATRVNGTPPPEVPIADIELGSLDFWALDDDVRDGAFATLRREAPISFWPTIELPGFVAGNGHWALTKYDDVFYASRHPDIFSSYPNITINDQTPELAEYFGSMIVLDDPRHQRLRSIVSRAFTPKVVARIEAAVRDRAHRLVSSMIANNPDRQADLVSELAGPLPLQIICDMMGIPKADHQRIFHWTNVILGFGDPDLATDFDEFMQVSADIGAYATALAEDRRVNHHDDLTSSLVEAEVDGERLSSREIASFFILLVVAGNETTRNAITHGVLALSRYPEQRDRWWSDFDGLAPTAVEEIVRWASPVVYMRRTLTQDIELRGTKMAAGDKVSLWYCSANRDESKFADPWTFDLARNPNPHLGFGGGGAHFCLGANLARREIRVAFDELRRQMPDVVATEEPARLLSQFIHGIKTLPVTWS

CYP142A1 = target: T2, CYP142A1 (Mycobacterium tuberculosis, UniProt P9WPL5); assay type: biochemical
T2 construct: gene cyp142
T2 sequence (P9WPL5 whole entry): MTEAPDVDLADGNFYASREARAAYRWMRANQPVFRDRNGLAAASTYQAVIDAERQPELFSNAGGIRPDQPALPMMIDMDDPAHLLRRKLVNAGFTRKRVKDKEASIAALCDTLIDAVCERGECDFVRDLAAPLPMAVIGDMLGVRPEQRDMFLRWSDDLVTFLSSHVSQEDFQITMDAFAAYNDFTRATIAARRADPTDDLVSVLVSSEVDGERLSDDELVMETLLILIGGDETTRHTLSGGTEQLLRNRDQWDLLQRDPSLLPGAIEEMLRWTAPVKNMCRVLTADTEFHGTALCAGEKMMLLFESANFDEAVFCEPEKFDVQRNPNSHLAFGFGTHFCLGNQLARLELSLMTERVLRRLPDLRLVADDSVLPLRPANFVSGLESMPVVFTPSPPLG

CYP125A1 = target: T3, CYP125A1 (Mycobacterium tuberculosis, UniProt P9WPP1); assay: reconstituted turnover, GC-MS detection of 27-hydroxycholesterol; assay type: biochemical; conditions: 0.5 μM CYP, 50 μM cholesterol in methyl-β-cyclodextrin; FdrA or FprA with FdxD or FdxE; pH 7.4; 37 °C
T3 construct: gene cyp125
T3 sequence (P9WPP1 whole entry): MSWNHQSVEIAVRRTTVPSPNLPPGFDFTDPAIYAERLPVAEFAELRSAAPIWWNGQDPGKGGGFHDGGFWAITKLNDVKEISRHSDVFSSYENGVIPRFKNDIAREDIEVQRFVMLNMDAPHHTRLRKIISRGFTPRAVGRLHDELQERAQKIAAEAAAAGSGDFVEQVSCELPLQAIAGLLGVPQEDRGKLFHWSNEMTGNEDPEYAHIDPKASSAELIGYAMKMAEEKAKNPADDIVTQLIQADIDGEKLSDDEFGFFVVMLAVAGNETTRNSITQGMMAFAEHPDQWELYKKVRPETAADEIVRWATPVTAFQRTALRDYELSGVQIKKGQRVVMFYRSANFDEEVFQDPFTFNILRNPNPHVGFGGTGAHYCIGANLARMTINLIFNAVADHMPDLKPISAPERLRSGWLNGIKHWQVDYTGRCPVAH

[1] = target: CYP143A1 (Mycobacterium tuberculosis) (UniProt P9WPL2); conditions: cited from earlier work
CYP143A1 (Mycobacterium tuberculosis), sequence (P9WPL2 whole entry): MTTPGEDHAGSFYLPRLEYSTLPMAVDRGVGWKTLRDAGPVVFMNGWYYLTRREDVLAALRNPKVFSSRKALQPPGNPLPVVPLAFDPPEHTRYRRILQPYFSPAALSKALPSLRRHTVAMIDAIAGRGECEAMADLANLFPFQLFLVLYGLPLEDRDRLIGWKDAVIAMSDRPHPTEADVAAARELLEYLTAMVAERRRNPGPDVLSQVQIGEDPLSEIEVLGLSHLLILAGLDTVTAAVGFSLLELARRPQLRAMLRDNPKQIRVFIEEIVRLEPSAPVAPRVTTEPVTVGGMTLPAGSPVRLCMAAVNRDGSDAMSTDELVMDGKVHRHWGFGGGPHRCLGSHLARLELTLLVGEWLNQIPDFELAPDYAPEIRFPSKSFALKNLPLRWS

ferredoxin Rv1786, sequence (O53937 whole entry): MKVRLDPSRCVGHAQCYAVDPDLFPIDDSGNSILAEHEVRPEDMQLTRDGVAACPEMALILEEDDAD

Row | Molecule | reconstituted turnover, GC-MS detection of 27-hydroxycholesterol (CYP124A1) | reconstituted turnover, GC-MS detection of 27-hydroxycholesterol (CYP142A1) | reconstituted turnover, GC-MS detection of 27-hydroxycholesterol (CYP125A1) | Kd [1]
1 | CC(C)CCC[C@@H](C)[C@H]1CC[C@H]2[C@@H]3CC=C4C[C@@H](O)CC[C@]4(C)[C@H]3CC[C@]12C [cholesterol] | only FdxD and FdxE were able to support cholesterol conversion | CYP142A1 was found to be the most efficient in cholesterol conversion | only FdxD and FdxE were able to support cholesterol conversion | –
2 | ferredoxin Rv1786 (from UniProt O53937) | – | – | – | 337 nM
